Reference: US3991204A, “Method of using benzopyrans as antiparasitic agents” (American Cyanamid Company, priority 1975, dated 1976)
Several values for one entry are separate records, joined by “and”; a condition that tells them apart may be missing. Equal entries are not always repeated.

Tests used:
Nematospiroides dubius = experiment: Efficacy against Nematospiroides dubius in mice (worm count in treated mice versus control average); assay type: in vivo, Nematospiroides dubius (host: Swiss Webster mice); design: key to % Eff. N.d. (class symbol): Active; Inactive; settings: for inhibition in vivo at 0.1 % / inhibition in vivo at 0.05 %: po, 168 h; for inhibition in vivo at 0.1 %: drug diet 0.1% for 7 days; for inhibition in vivo at 0.05 %: drug diet 0.05% for 7 days
Experimental: (§1) Efficacy of 4-Hydroxy-2-oxo-2H-1-benzopyran-3-carboxanilide derivatives against various helminths in mice
(§2) Six weeks old Swiss Webster mice are orally inoculated with Nematospiroides dubius, Hymenolepis nana and Aspicularis tetraptera. Eighteen days postinoculation the mice are treated with the appropriate drug diet level for 7 days. For single oral dose administration the compound is thoroughly mixed with 0.1 percent agar and orally intubated at the required dosage 22 days postinfection. 10-15,000 Ascaris suum infective eggs are administered to mice after 1 day on diet medication or 3 days prior to single oral dose administration. Determination of efficacy is done by counting all the N. dubius in treated mice versus the control average. For H. nana and A. tetraptera the absence or presence of these parasites in treated mice is the criterior for determining activity. For A. suum activity the following criterion was used. Reduction or elimination of lung pathology and the total number of lung larvae from treated animals was compared to lung larvae recovered from controls.

Ascaris suum = experiment: Efficacy against Ascaris suum in mice (lung pathology and lung larvae versus controls); assay type: in vivo, Ascaris suum (host: Swiss Webster mice); design: key: Active; Inactive
Experimental: as §1, §2

Aspicularis tetraptera = experiment: Efficacy against Aspicularis tetraptera in mice (absence or presence of parasites); assay type: in vivo, Aspicularis tetraptera (host: Swiss Webster mice); design: key: Active; Inactive
Experimental: as §1, §2

Hymenolepis nana = experiment: Efficacy against Hymenolepis nana in mice (absence or presence of parasites); assay type: in vivo, Hymenolepis nana (host: Swiss Webster mice); design: key: Active; Inactive
Experimental: as §1, §2

Haemonchus contortus = experiment: Evaluation (efficacy) test in experimentally inoculated sheep, Haemonchus contortus; assay type: in vivo, Haemonchus contortus (host: lambs); settings: intraruminal dose 50 mg/kg
Experimental: (§3) Evaluation (Efficacy) Test in Sheep
(§4) Lambs are experimentally inoculated with Haemonchus contortus (H.c.), Trichostrongylus axei (T.a.), Ostertagia circumcincta (O.c) and Trichostrongylus colubriformis (T.c.) species. At patency of the parasites the lambs are treated with 50 mg/kg of body weight with the compound under test administered as an intraruminal injection in 0.2 percent agar. Three days post treatment treated lambs and similary inoculated controls are necropsied and examined for parasites. Percent efficacy is calculated by comparing the average worm burden in the treated group with the average worm burden in the control group.

[1] = system: Trichostrongylus colubriformis; experiment: Evaluation (efficacy) test in experimentally inoculated sheep, Trichostrongylus colubriformis; assay type: in vivo, Trichostrongylus colubriformis (host: lambs); settings: intraruminal dose 50 mg/kg
Experimental: as §3, §4

Ostertagia circumcincta = experiment: Evaluation (efficacy) test in experimentally inoculated sheep, Ostertagia circumcincta; assay type: in vivo, Ostertagia circumcincta (host: lambs); settings: intraruminal dose 50 mg/kg
Experimental: as §3, §4

[2] = system: Trichostrongylus vitrinus; experiment: Efficacy against naturally occurring parasitic infestation in sheep, Trichostrongylus vitrinus male; assay type: in vivo, Trichostrongylus vitrinus (host: lambs); settings: naturally infected sheep, single oral dose 100 mg/kg
Experimental: (§5) Efficacy of 3',4'-Dichloro-4-hydroxy-2-oxo-2H-1-benzopyran-3 -carboxanilideagainst Naturally Occurring Parasitic
(§6) Lambs naturally infected with a number of parasitic species are treated with 100 mg/kg of body weight with the compound under tested administration as a single oral dose. After treatment, 24 hour fecal outputs for 3 days are collected from each animal and examined for the passage of parasites. Three days post treatment the lambs are necropsied and examined for parasites. Percent efficacy is calculated using the formula: [formula]

[3] = system: Trichostrongylus colubriformis; experiment: Efficacy against naturally occurring parasitic infestation in sheep, Trichostrongylus colubriformis male; assay type: in vivo, Trichostrongylus colubriformis (host: lambs); settings: naturally infected sheep, single oral dose 100 mg/kg
Experimental: as §5, §6

Trichostrongylus axei = experiment: Evaluation (efficacy) test in experimentally inoculated sheep, Trichostrongylus axei; assay type: in vivo, Trichostrongylus axei (host: lambs); settings: intraruminal dose 50 mg/kg
Experimental: as §3, §4

Bunostomum = experiment: Efficacy against naturally occurring parasitic infestation in sheep, Bunostomum; assay type: in vivo, Bunostomum (host: lambs); settings: naturally infected sheep, single oral dose 100 mg/kg
Experimental: as §5, §6

Cooperia punctata = experiment: Efficacy against naturally occurring parasitic infestation in sheep, Cooperia punctata; assay type: in vivo, Cooperia punctata (host: lambs); settings: naturally infected sheep, single oral dose 100 mg/kg
Experimental: as §5, §6

[4] = system: Trichostrongylus colubriformis; experiment: Evaluation against Trichostrongylus colubriformis in the Mongolian gerbil; assay type: in vivo, Trichostrongylus colubriformis (host: Mongolian gerbil)
Experimental: Evaluation of 3',4'-Dichloro-4-hydroxy-2-oxo-2H-1-benzopyran-3-carboxanilide against Trichlostrongylus colubriformis in the Mongolian Gerbil Monogolian gerbils are inoculated with 2000 T. colubriformis larvae each. Fourteen to 94 days post inoculation the gerbils are treated with the appropiate drug level diet for 6 days. For single oral dose administration the compound is thoroughly mixed with 0.1 percent agar and orally intubated at the required level. After treatment, 24 hour fecal outputs for 3 days are collected from each animal and examined for passage of parasites. Three days post treatment the gerbils are necropsied and examined for parasites. Percent efficacy is calculated using the formula: [formula]

[5] = Heligmosomoides polygyrus, read-out: % Eff. N.d.

O=C(Nc1cccc(F)c1)c1c(O)c2ccccc2oc1=O [Example 4]
inhibition in vivo at 0.1 % (Nematospiroides dubius; [5]): 77%
A.s. activity (Ascaris suum; drug diet 0.1% for 7 days): i
A.t. activity (Aspicularis tetraptera; drug diet 0.1% for 7 days): i
H.n. activity (Hymenolepis nana; drug diet 0.1% for 7 days): i

O=C(Nc1cc(F)ccc1F)c1c(O)c2ccccc2oc1=O [Example 7]
inhibition in vivo at 0.1 % (Nematospiroides dubius; [5]): 41%
A.s. activity (Ascaris suum; drug diet 0.1% for 7 days): i
A.t. activity (Aspicularis tetraptera; drug diet 0.1% for 7 days): i
H.n. activity (Hymenolepis nana; drug diet 0.1% for 7 days): i

O=C(Nc1ccc(Cl)c(Cl)c1)c1c(O)c2ccccc2oc1=O [Example 1, 3',4'-Dichloro-4-hydroxy-2-oxo-2H-1-benzopyran-3-carboxanilide]
inhibition in vivo at 0.05 % (Nematospiroides dubius; [5]): 85%
inhibition in vivo at 0.1 % (Nematospiroides dubius; [5]): 100%
inhibition in vivo at 2000 mg/kg (Nematospiroides dubius; Heligmosomoides polygyrus, single oral dose 2000 mg/kg, read-out: % Eff. N.d.): 55%
% Eff. N.d. (class symbol) (Nematospiroides dubius; single oral dose 100 mg/kg): i
% Eff. N.d. (class symbol) (Nematospiroides dubius; single oral dose 500 mg/kg): i
% Eff. N.d. (class symbol) (Nematospiroides dubius; single oral dose 1000 mg/kg): i
% Efficacy H.c. (Haemonchus contortus): 100%
% Efficacy T.c. [1]: 35%
% Efficacy O.c. (Ostertagia circumcincta): 86%
% Efficacy T.v. Male [2]: 100% and 79%
% Efficacy T.c. Male [3]: 85% and 61%
% Efficacy T.a. (Trichostrongylus axei): 0%
A.s. activity (Ascaris suum; drug diet 0.05% for 7 days): i
A.s. activity (Ascaris suum; drug diet 0.1% for 7 days): i
A.s. activity (Ascaris suum; single oral dose 100 mg/kg): i
A.s. activity (Ascaris suum; single oral dose 500 mg/kg): A
A.s. activity (Ascaris suum; single oral dose 1000 mg/kg): A
A.s. activity (Ascaris suum; single oral dose 2000 mg/kg): A
% Efficacy Bun. (Bunostomum): 100%
% Efficacy C.p. (Cooperia punctata): 100%
% Efficacy ([4]; 0.05% drug in feed × 6 Days): 82%
% Efficacy ([4]; single oral dose 100 mg/kg): 40%
% Efficacy ([4]; single oral dose 500 mg/kg): 100%
A.t. activity (Aspicularis tetraptera; drug diet 0.1% for 7 days): A
A.t. activity (Aspicularis tetraptera; single oral dose 100 mg/kg): A
A.t. activity (Aspicularis tetraptera; single oral dose 500 mg/kg): A
A.t. activity (Aspicularis tetraptera; single oral dose 1000 mg/kg): i
H.n. activity (Hymenolepis nana; drug diet 0.05% for 7 days): i
H.n. activity (Hymenolepis nana; drug diet 0.1% for 7 days): A
H.n. activity (Hymenolepis nana; single oral dose 100 mg/kg): i
H.n. activity (Hymenolepis nana; single oral dose 500 mg/kg): i
H.n. activity (Hymenolepis nana; single oral dose 1000 mg/kg): i

O=C(Nc1ccc(F)cc1F)c1c(O)c2ccccc2oc1=O [Example 6]
inhibition in vivo at 0.1 % (Nematospiroides dubius; [5]): 94%
A.s. activity (Ascaris suum; drug diet 0.1% for 7 days): i
A.t. activity (Aspicularis tetraptera; drug diet 0.1% for 7 days): A
H.n. activity (Hymenolepis nana; drug diet 0.1% for 7 days): i

O=C(Nc1cccc(Cl)c1)c1c(O)c2ccccc2oc1=O [Example 2]
inhibition in vivo at 0.05 % (Nematospiroides dubius; [5]): 46%
inhibition in vivo at 0.1 % (Nematospiroides dubius; [5]): 65%
A.s. activity (Ascaris suum; drug diet 0.05% for 7 days): i
A.s. activity (Ascaris suum; drug diet 0.1% for 7 days): i
A.t. activity (Aspicularis tetraptera; drug diet 0.05% for 7 days): i
A.t. activity (Aspicularis tetraptera; drug diet 0.1% for 7 days): A
H.n. activity (Hymenolepis nana; drug diet 0.05% for 7 days): i
H.n. activity (Hymenolepis nana; drug diet 0.1% for 7 days): A

O=C(Nc1ccc(F)cc1)c1c(O)c2ccccc2oc1=O [Example 3]
inhibition in vivo at 0.1 % (Nematospiroides dubius; [5]): 54%
A.s. activity (Ascaris suum; drug diet 0.1% for 7 days): i
A.t. activity (Aspicularis tetraptera; drug diet 0.1% for 7 days): i
H.n. activity (Hymenolepis nana; drug diet 0.1% for 7 days): A

O=C(Nc1ccc(Cl)cc1Cl)c1c(O)c2ccccc2oc1=O [Example 8]
inhibition in vivo at 0.05 % (Nematospiroides dubius; [5]): 94%
inhibition in vivo at 0.1 % (Nematospiroides dubius; [5]): 100%
A.s. activity (Ascaris suum; drug diet 0.05% for 7 days): i
A.s. activity (Ascaris suum; drug diet 0.1% for 7 days): i
A.t. activity (Aspicularis tetraptera; drug diet 0.05% for 7 days): A
A.t. activity (Aspicularis tetraptera; drug diet 0.1% for 7 days): A
H.n. activity (Hymenolepis nana; drug diet 0.05% for 7 days): i
H.n. activity (Hymenolepis nana; drug diet 0.1% for 7 days): i

O=C(Nc1ccccc1F)c1c(O)c2ccccc2oc1=O [Example 5]
inhibition in vivo at 0.1 % (Nematospiroides dubius; [5]): 66%
A.s. activity (Ascaris suum; drug diet 0.1% for 7 days): i
A.t. activity (Aspicularis tetraptera; drug diet 0.1% for 7 days): i
H.n. activity (Hymenolepis nana; drug diet 0.1% for 7 days): i
